Test results as given in patent publication US12286632B2, “Rationally-designed synthetic peptide shuttle agents for delivering polypeptide cargos from an extracellular space to the cytosol and/or nucleus of a target eukaryotic cell, uses thereof, methods and kits relating to same” (Feldan Bio Inc., priority 2016, dated 2025).
Ends that are not written are not given here.

Tests used:
[1] = in vitro; conditions: human, NCI-H196 cells
[2] = in vitro; conditions: human, HeLa cells
[3] = in vitro; conditions: human, HeLa cells; remark: listed apart in the source
[4] = in vitro; conditions: human, HCC-78 cells
[5] = tested on: THP-1 cells; assay: HOXB4-WT transduction: target gene mRNA by real-time PCR (Fold over control) and total RNA (ng/μL) as marker for cell viability; type: cell-based, human; conditions: THP-1 cells; for Total RNA in ng/μL (mean ± St. Dev): peptide alone 1 μM, HOXB4-WT 0 μM, marker for cell viability
Protocol: Control and treated cells are transferred to separate sterile 1.5-mL tubes and centrifuged for 5 minutes at 300g. The cell pellets are resuspended in appropriate buffer to lyse the cells. RNAase-free 70% ethanol is then added followed by mixing by pipetting. The lysates are transferred to an RNeasy™ Mini spin column and centrifuged 30 seconds at 13000 RPM. After several washes with appropriate buffers and centrifugation steps, the eluates are collected in sterile 1.5-mL tubes on ice, and the RNA quantity in each tube is then quantified with a spectrophotometer. For DNase treatment, 2 μg of RNA is diluted in 15 μL of RNase-free water. 1.75 μL of 10X DNase buffer and 0.75 μL of DNase is then added, followed by incubation at 37° C. for 15 minutes. For reverse transcriptase treatment, 0.88 μL of EDTA […] is added, followed by incubation at 75° C. for 5 minutes. In a PCR tube, […] of DNase-treated RNA is mixed with 4 μL of iScript™ Reverse transcription Supermix (5X) and […] of nuclease-free water. The mix is incubated in a PCR machine with the following program: 5 min at 25° C., 30 min at 42° C. and 5 min at 85° C. Newly synthesized cDNA is transferred in sterile 1.5-mL tubes and diluted in 2 μL of nuclease-free water. 18 μL per well of a qPCR machine (CFX-96™) mix is then added in a PCR plate for analysis.
Briefly, THP-1 cells were plated at 30 000 cells/well one day before transduction. HOXB4-WT recombinant protein ([…]; Example 14.1) was co-incubated with different concentrations of His-CM18-PTD4 ([…]) and then exposed to THP-1 cells for 2.5 hours in the presence of serum. The cells were subjected to real time-PCR analysis as described in Example 14.2 to measure the mRNA levels of a target gene as a marker for HOXB4 activity, which was then normalized to the target gene mRNA levels detected in the negative control cells (no treatment), to obtain a “Fold over control” value. Total RNA levels (ng/μL) were also measured as a marker for cell viability.
Briefly, THP-1 cells were plated at 30 000 cells/well one day before the first time course experiment. HOXB4-WT recombinant protein (1.5 μM; Example 14.1) was co-incubated with His-CM18-PTD4 (0.8 μM) and then exposed to THP-1 cells for 0, 2.5, 4, 24 or 48 hours in presence of serum. The cells were subjected to real time-PCR analysis as described in Example 14.2 to measure mRNA levels of a target gene as a marker for HOXB4 activity, which was then normalized to the target gene mRNA levels detected in the negative control cells (no treatment), to obtain a “Fold over control” value. Total RNA levels (ng/μL) were also measured as a marker for cell viability.
Briefly, THP-1 cells were plated at 30 000 cells/well one day before the first time course experiment. HOXB4-WT recombinant protein (0.3 μM; Example 14.1) was co-incubated with His-CM18-PTD4 (0.8 μM) and then exposed to THP-1 cells for 0, 0.5, 1, 2, 2.5, 3 or 4 hours in presence of serum. The cells were subjected to real time-PCR analysis as described in Example 14.2 to measure mRNA levels of a target gene as a marker for HOXB4 activity, which was then normalized to target gene mRNA levels detected in the negative control cells (no treatment), to obtain a “Fold over control” value. Total RNA levels (ng/μL) were also measured as a marker for cell viability.
Briefly, THP-1 cells were plated at 30 000 cells/well one day before the first time course experiment. HOXB4-WT recombinant protein (1.5 μM; Example 14.1) co-incubated with the shuttle agents His-CM18-PTD4, TAT-KALA, EB1-PTD4, His-C(LLKK)3C-PTD4 and His-CM18-PTD4-His at 0.8 μM, and then exposed to THP-1 cells for 2.5 hours in presence of serum. The cells were subjected to real time-PCR analysis as described in Example 14.2 to measure mRNA levels of a target gene as a marker for HOXB4 activity, which was then normalized to target gene mRNA levels detected in the negative control cells (no treatment), to obtain a “Fold over control” value. […]

[6] = tested on: HeLa cells; conditions: human, 10 s, 50 µM
[7] = tested on: HeLa cells; assay: Plasmid DNA (pEGFP-C1) transfection by peptides (% cells with GFP signal, cell viability); conditions: DNA transfection in HeLa cells using peptides; pEGFP-C1 plasmid
[8] = Cell viability (%) (±St. Dev.; n = 3)

**Q.** For “HHHHHHLLKLWSRLLKLWTQGRRLKAKRAKAHHHHHH [FSD5]”, which viability at 1 min, 8 µM [1] is on record?
**A.** 69.9 ± 6.38%

**Q.** What about the viability at 1 min, 10 µM [1] of the same molecule?
**A.** 47.2 ± 3.54%

**Q.** And the viability at 2 min, 5 µM [1]?
**A.** 77.2 ± 6.17%

**Q.** And the viability [2]?
**A.** 93.2 ± 8.63%

**Q.** What about the viability ([3]; Cell viability (%) (±St Dev.; n = 3)) of the same molecule?
**A.** 86 ± 7.45%

**Q.** And the viability at 1 min, 8 µM [3, 8]?
**A.** 85 ± 6.27%

**Q.** And the viability at 1 min, 10 µM [3, 8]?
**A.** 76 ± 7.45%

**Q.** What about the viability at 2 min, 5 µM [3, 8] of the same molecule?
**A.** 35.5 ± 4.82%

**Q.** And the viability at 1 min, 8 µM [4]?
**A.** 87.7 ± 6.52%

**Q.** What about the viability at 1 min, 10 µM [4] of the same molecule?
**A.** 15.9 ± 0.83%

**Q.** And the viability at 2 min, 5 µM [4]?
**A.** 75.3 ± 6.18%

**Q.** With HOXB4-WT alone as the molecule, how does the “Fold over control (mean ± St. Dev)” value ([5]; HOXB4-WT alone 1.5 μM, no peptide, target gene mRNA by real time-PCR) read?
**A.** 2.5 ± 0.2

**Q.** Which “Cell viability (%) (±St. Dev.; n = 3)” value [6] does the source give for “RRLSYSRRRFWEAKLAKALAKALAKHLAKALAKALKACEA [SynB3-KALA]” here?
**A.** 91.1 ± 0.82%

**Q.** Which results are given for YARAAARQARA [PTD4, reference compound]?
**A.** Cell viability (%) (±St. Dev.; n = 3) [6]: 94 ± 4.5%; viability [2]: 98.2 ± 0.69%

**Q.** With “LLKLWSRLLKLWTQGGSGGGSGRRLKAKRAKA [FSD18 alone]” as the molecule, how does the “Total RNA in ng/μL (mean ± St. Dev)” value [5] read?
**A.** 157 ± 3.9 ng/µL

**Q.** What does the source list for “HHHHHHHHHKWKLFKKIGAVLKVLTTGYARAAARQARA [Peptide 9His-CM18-PTD4]”?
**A.** Mean % cells with GFP signal (±St. Dev.; n = 3) [7]: 0.04 ± 0.01%; viability [2]: 98.72 ± 0.93%

**Q.** With “KWKLARAFARAIKKLGGSGGGSYARALRRQARTG [FSD10 alone]” as the molecule, how does the “Total RNA in ng/μL (mean ± St. Dev)” value [5] read?
**A.** 181 ± 10.7 ng/µL

**Q.** Which “Mean % cells with GFP signal (±St. Dev.; n = 3)” value [7] does the source give for `CC[C@H](C)[C@H](NC(=O)[C@H](CCCCN)NC(=O)[C@H](CCCCN)NC(=O)[C@H](Cc1ccccc1)NC(=O)[C@H](CC(C)C)NC(=O)[C@H](CCCCN)NC(=O)[C@H](Cc1c[nH]c2ccccc12)NC(=O)[C@@H](N)CCCCN)C(=O)NCC(=O)N[C@@H](C)C(=O)N[C@H](C(=O)N[C@@H](CC(C)C)C(=O)N[C@@H](CCCCN)C(=O)N[C@H](C(=O)N[C@@H](CC(C)C)C(=O)N[C@H](C(=O)N[C@H](C(=O)NCC(=O)N[C@@H](CCCNC(=N)N)C(=O)N[C@@H](CCC(N)=O)C(=O)N[C@H](C(=O)N[C@@H](CCCCN)C(=O)N[C@H](C(=O)N[C@@H](Cc1c[nH]c2ccccc12)C(=O)N[C@@H](Cc1ccccc1)C(=O)N[C@@H](CCC(N)=O)C(=O)N[C@@H](CC(N)=O)C(=O)N[C@@H](CCCNC(=N)N)C(=O)N[C@@H](CCCNC(=N)N)C(=O)N[C@@H](CCSC)C(=O)N[C@@H](CCCCN)C(=O)N[C@@H](Cc1c[nH]c2ccccc12)C(=O)N[C@@H](CCCCN)C(=O)N[C@@H](CCCCN)C(=O)N[C@@H](CS)C(=O)O)[C@@H](C)CC)[C@@H](C)CC)[C@@H](C)O)[C@@H](C)O)C(C)C)C(C)C` [CM18-Pen-Cys] here?
**A.** 0.01 ± 0.0%

**Q.** And the viability [2]?
**A.** 16.1 ± 0.12%
